The numbers were not newly measured in patent US20100317677A1, “Methods of Treating a Microbial Infection by Modulating RNase-L Expression and/or Activity” (priority 2007, published 2010), which cites them from elsewhere.

This series concerns the target T1, RNase-L (Homo sapiens, UniProt Q05823).
T1 sequence (Q05823 1-741): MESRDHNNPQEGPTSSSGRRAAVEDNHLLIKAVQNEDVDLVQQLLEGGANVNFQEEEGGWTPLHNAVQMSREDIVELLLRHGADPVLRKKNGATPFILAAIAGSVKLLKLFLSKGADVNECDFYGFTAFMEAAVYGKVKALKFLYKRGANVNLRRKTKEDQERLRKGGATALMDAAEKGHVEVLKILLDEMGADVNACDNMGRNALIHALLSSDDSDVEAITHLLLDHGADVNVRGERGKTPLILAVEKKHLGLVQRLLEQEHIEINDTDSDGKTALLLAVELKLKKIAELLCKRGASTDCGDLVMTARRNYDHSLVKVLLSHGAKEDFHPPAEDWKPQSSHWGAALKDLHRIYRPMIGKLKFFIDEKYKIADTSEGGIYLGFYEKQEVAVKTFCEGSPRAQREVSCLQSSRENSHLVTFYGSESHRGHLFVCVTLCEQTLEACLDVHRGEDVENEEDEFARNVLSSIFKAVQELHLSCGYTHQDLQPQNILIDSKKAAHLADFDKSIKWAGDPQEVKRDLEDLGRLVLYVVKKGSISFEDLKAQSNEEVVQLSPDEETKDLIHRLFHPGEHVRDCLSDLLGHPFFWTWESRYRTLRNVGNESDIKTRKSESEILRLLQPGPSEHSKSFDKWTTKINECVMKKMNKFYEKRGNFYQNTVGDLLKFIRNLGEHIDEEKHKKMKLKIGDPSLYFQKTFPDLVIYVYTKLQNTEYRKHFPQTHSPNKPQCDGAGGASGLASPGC
The note with it: statement in words, cited from Thakur et al. 2007 and other literature.

As for px5′A(2′p5′A)n [2-5A], the “Effect on the activity of RNase-L” value was “increases the activity of RNase-L”.
